Assay results taken from ChEMBL document CHEMBL1149774, “Synthesis of N-(5,7-diamino-3-phenyl-quinoxalin-2-yl)-3,4,5-substituted anilines and N-[4[(5,7-diamino-3-phenylquinoxalin-2-yl)amino]benzoyl]-l-glutamic acid diethyl ester: evaluation of in vitro anti-cancer and anti-folate activities” (Eur J Med Chem, 2008).
Activity calls are given as the source filed them. The calls are words filed in the database; no cut-off is given here.

Assays:
HOP-92 = assay: Growth inhibition of human HOP92 cells after 48 hrs by SRB staining method; assay type: functional; details: HOP-92, 48 h
NCI-H322M = assay: Growth inhibition of human NCI-H322M cells after 48 hrs by SRB staining method; assay type: functional
COLO 205 = assay: Growth inhibition of human COLO205 cells after 48 hrs by SRB staining method; assay type: functional; details: COLO 205, 48 h; for TGI: read-out: pTGI (converted)
HCT-116 = assay: Growth inhibition of human HCT116 cells after 48 hrs by SRB staining method; assay type: functional; details: HCT-116, 48 h; for TGI: read-out: pTGI (converted)
SF-539 = assay: Growth inhibition of human SF539 cells after 48 hrs by SRB staining method; assay type: functional; details: SF-539, 48 h; for TGI: read-out: pTGI (converted)
SNB-75 = assay: Growth inhibition of human SNB75 cells after 48 hrs by SRB staining method; assay type: functional; details: SNB-75, 48 h
U-251 = assay: Growth inhibition of human U251 cells after 48 hrs by SRB staining method; assay type: functional; details: U-251, 48 h; for TGI: read-out: pTGI (converted)
SK-MEL-28 = assay: Growth inhibition of human SK-MEL-28 cells after 48 hrs by SRB staining method; assay type: functional; details: SK-MEL-28, 48 h; for CC50: read-out: pLC50 (the source's name) (converted); for TGI: read-out: pTGI (converted)
OVCAR-3 = assay: Growth inhibition of human OVCAR-3 cells after 48 hrs by SRB staining method; assay type: functional; details: OVCAR-3, 48 h; for TGI: read-out: pTGI (converted)
OVCAR-5 = assay: Growth inhibition of human OVCAR5 cells after 48 hrs by SRB staining method; assay type: functional; details: OVCAR-5, 48 h; for TGI: read-out: pTGI (converted)
OVCAR-8 = assay: Growth inhibition of human OVCAR8 cells after 48 hrs by SRB staining method; assay type: functional; details: OVCAR-8, 48 h; for CC50: read-out: pLC50 (the source's name) (converted); for TGI: read-out: pTGI (converted)
CAKI-1 = assay: Growth inhibition of human CAKI1 cells after 48 hrs by SRB staining method; assay type: functional; details: CAKI-1, 48 h; for CC50: read-out: pLC50 (the source's name) (converted); for TGI: read-out: pTGI (converted)
TK-10 = assay: Growth inhibition of human TK10 cells after 48 hrs by SRB staining method; assay type: functional; details: TK-10, 48 h; for CC50: read-out: pLC50 (the source's name) (converted); for TGI: read-out: pTGI (converted)
MDA-MB-231 = assay: Growth inhibition of human MDA-MB-231 cells after 48 hrs by SRB staining method; assay type: functional; details: MDA-MB-231, 48 h; for CC50: read-out: pLC50 (the source's name) (converted); for TGI: read-out: pTGI (converted)
BT-549 = assay: Growth inhibition of human BT549 cells after 48 hrs by SRB staining method; assay type: functional; details: BT-549, 48 h
[1] = target: T1, Dihydrofolate reductase (Homo sapiens) (UniProt P00374); assay: Inhibition of human dihydrofolate reductase at 10 uM
T1 sequence (whole entry): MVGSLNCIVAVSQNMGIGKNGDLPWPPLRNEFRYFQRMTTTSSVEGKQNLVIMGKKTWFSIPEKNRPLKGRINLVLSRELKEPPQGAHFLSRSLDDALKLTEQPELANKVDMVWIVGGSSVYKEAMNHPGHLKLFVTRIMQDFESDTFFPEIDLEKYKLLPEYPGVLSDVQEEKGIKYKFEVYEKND

A549 = assay: Growth inhibition of human A549 cells after 48 hrs by SRB staining method; assay type: functional; details: A549, 48 h; for CC50: read-out: pLC50 (the source's name) (converted); for TGI: read-out: pTGI (converted)
SW-620 = assay: Growth inhibition of human SW620 cells after 48 hrs by SRB staining method; assay type: functional; details: SW-620, 48 h; for CC50: read-out: pLC50 (the source's name) (converted); for TGI: read-out: pTGI (converted)
SF-268 = assay: Growth inhibition of human SF268 cells after 48 hrs by SRB staining method; assay type: functional; details: SF-268, 48 h; for CC50: read-out: pLC50 (the source's name) (converted); for TGI: read-out: pTGI (converted)
K562 = assay: Growth inhibition of human K562 cells after 48 hrs by SRB staining method; assay type: functional; details: K562, 48 h; for CC50: read-out: pLC50 (the source's name) (converted); for TGI: read-out: pTGI (converted)
RPMI-8226 = assay: Growth inhibition of human RPMI8226 cells after 48 hrs by SRB staining method; assay type: functional; details: RPMI-8226, 48 h; for CC50: read-out: pLC50 (the source's name) (converted); for TGI: read-out: pTGI (converted)
SR = assay: Growth inhibition of human SR cells after 48 hrs by SRB staining method; assay type: functional
MOLT-4 = assay: Growth inhibition of human MOLT4 cells after 48 hrs by SRB staining method; assay type: functional; details: MOLT-4, 48 h; for CC50: read-out: pLC50 (the source's name) (converted); for TGI: read-out: pTGI (converted)
EKVX = assay: Growth inhibition of human EKVX cells after 48 hrs by SRB staining method; assay type: functional; details: for CC50: read-out: pLC50 (the source's name) (converted); for TGI: read-out: pTGI (converted)
Thymidylate synthase [2] = target: T2, Thymidylate synthase (Lactobacillus casei, UniProt P00469)
T2 sequence (P00469 whole entry): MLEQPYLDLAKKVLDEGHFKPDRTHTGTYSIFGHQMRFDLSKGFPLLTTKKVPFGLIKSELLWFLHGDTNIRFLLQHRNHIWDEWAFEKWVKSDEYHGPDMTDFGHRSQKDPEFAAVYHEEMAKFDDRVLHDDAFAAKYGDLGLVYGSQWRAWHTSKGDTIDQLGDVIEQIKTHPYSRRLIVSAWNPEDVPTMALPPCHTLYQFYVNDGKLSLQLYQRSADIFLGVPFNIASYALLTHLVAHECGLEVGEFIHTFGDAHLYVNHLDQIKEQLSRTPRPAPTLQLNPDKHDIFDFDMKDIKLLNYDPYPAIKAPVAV
Description: Inhibition of Lactobacillus casei thymidylate synthase

CCRF-CEM = assay: Growth inhibition of human CCRF-CEM cells after 48 hrs by SRB staining method; assay type: functional
Thymidylate synthase [3] = target: Thymidylate synthase (Homo sapiens, UniProt P04818)
Chain of Thymidylate synthase (Homo sapiens, UniProt P04818) (P04818 whole entry): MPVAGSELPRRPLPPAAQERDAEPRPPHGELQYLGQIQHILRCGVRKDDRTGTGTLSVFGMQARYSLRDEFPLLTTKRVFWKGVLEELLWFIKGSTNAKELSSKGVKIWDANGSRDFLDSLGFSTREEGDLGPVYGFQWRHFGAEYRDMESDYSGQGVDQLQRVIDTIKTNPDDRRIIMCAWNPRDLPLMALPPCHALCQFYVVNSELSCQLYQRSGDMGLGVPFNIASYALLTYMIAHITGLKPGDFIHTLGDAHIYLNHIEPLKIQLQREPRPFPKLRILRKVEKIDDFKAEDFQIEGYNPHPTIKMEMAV
Description: Inhibition of human thymidylate synthase

[4] = read-out: pLC50 (the source's name) (converted)

Nc1cc(N)c2nc(-c3ccccc3)c(Nc3ccc(F)cc3)nc2c1
GI50 (HOP-92): 13.2 µM
TGI (HOP-92; read-out: pTGI (converted)): 43.7 µM
GI50 (NCI-H322M): 17 µM
TGI (NCI-H322M; read-out: pTGI (converted)): 35.5 µM
GI50 (COLO 205): 20.4 µM
TGI (COLO 205): 56.2 µM
GI50 (HCT-116): 20 µM
TGI (HCT-116): > 100 µM
GI50 (SF-539): 11 µM
TGI (SF-539): 24.5 µM
GI50 (SNB-75): 20.9 µM
TGI (SNB-75; read-out: pTGI (converted)): 41.7 µM
GI50 (U-251): 5.62 µM
TGI (U-251): 20 µM
GI50 (SK-MEL-28): 20.4 µM
CC50 (SK-MEL-28): 75.9 µM
TGI (SK-MEL-28): 38.9 µM
GI50 (OVCAR-3): 4.68 µM
TGI (OVCAR-3): 17.8 µM
GI50 (OVCAR-5): 38 µM
TGI (OVCAR-5): > 100 µM
GI50 (OVCAR-8): 12.3 µM
CC50 (OVCAR-8): 74.1 µM
TGI (OVCAR-8): 30.2 µM
GI50 (CAKI-1): 19.1 µM
CC50 (CAKI-1): 85.1 µM
TGI (CAKI-1): 40.7 µM
GI50 (TK-10): 17.4 µM
CC50 (TK-10): 74.1 µM
TGI (TK-10): 35.5 µM
GI50 (MDA-MB-231): 11 µM
CC50 (MDA-MB-231): 85.1 µM
TGI (MDA-MB-231): 30.2 µM
GI50 (BT-549): 12 µM
CC50 (BT-549; [4]): 63.1 µM
TGI (BT-549; read-out: pTGI (converted)): 26.9 µM
Activity [1]: inactive
GI50 (A549): 17.4 µM
CC50 (A549): > 100 µM
TGI (A549): 44.7 µM
GI50 (SW-620): 13.5 µM
CC50 (SW-620): > 100 µM
TGI (SW-620): 38.9 µM
GI50 (SF-268): 13.2 µM
CC50 (SF-268): > 100 µM
TGI (SF-268): 40.7 µM
GI50 (K562): 5.01 µM
CC50 (K562): > 100 µM
TGI (K562): > 100 µM
GI50 (RPMI-8226): 4.68 µM
CC50 (RPMI-8226): > 100 µM
TGI (RPMI-8226): 34.7 µM
GI50 (SR): 5.37 µM
GI50 (MOLT-4): > 100 µM
CC50 (MOLT-4): > 100 µM
TGI (MOLT-4): > 100 µM
GI50 (EKVX): 12 µM
CC50 (EKVX): 75.9 µM
TGI (EKVX): 30.2 µM
Ki (Thymidylate synthase [2]): 3 µM

Nc1cc(N)c2nc(-c3ccccc3)c(Nc3ccc(Cl)c(Cl)c3)nc2c1
LC50 (NCI-H322M): 63.1 µM
GI50 (COLO 205): 11.7 µM
LC50 (COLO 205): 85.1 µM
TGI (COLO 205): 31.6 µM
GI50 (HCT-116): 10.7 µM
LC50 (HCT-116): > 100 µM
TGI (HCT-116): 52.5 µM
GI50 (SF-539): 17 µM
LC50 (SF-539): 72.4 µM
TGI (SF-539): 35.5 µM
GI50 (U-251): 4.68 µM
LC50 (50% lethal concentration) (U-251): > 100 µM
TGI (U-251): > 100 µM
GI50 (SK-MEL-28): 16.2 µM
CC50 (SK-MEL-28): > 100 µM
TGI (SK-MEL-28): 44.7 µM
GI50 (OVCAR-3): 2.95 µM
LC50 (OVCAR-3): 37.2 µM
TGI (OVCAR-3): 10 µM
GI50 (OVCAR-5): 28.2 µM
LC50 (OVCAR-5): 85.1 µM
TGI (OVCAR-5): 49 µM
GI50 (OVCAR-8): 5.13 µM
CC50 (OVCAR-8): > 100 µM
TGI (OVCAR-8): 79.4 µM
GI50 (CAKI-1): 13.5 µM
CC50 (CAKI-1): 64.6 µM
TGI (CAKI-1): 29.5 µM
GI50 (TK-10): 13.8 µM
CC50 (TK-10): 66.1 µM
TGI (TK-10): 30.2 µM
GI50 (MDA-MB-231): 5.75 µM
CC50 (MDA-MB-231): > 100 µM
TGI (MDA-MB-231): 27.5 µM
Activity [1]: inactive
GI50 (A549): 10.7 µM
CC50 (A549): > 100 µM
TGI (A549): 34.7 µM
GI50 (SW-620): 13.2 µM
CC50 (SW-620): > 100 µM
TGI (SW-620): 51.3 µM
GI50 (SF-268): 12 µM
CC50 (SF-268): 67.6 µM
TGI (SF-268): 28.8 µM
GI50 (CCRF-CEM): 1.29 µM
CC50 (CCRF-CEM; [4]): > 100 µM
GI50 (K562): 3.55 µM
CC50 (K562): > 100 µM
TGI (K562): > 100 µM
GI50 (RPMI-8226): 2 µM
CC50 (RPMI-8226): > 100 µM
TGI (RPMI-8226): 4.9 µM
GI50 (SR): 2.57 µM
CC50 (SR; [4]): > 100 µM
TGI (SR; read-out: pTGI (converted)): 15.5 µM
GI50 (MOLT-4): 4.07 µM
CC50 (MOLT-4): > 100 µM
TGI (MOLT-4): > 100 µM
GI50 (EKVX): 3.8 µM
CC50 (EKVX): 47.9 µM
TGI (EKVX): 16.2 µM
Ki (Thymidylate synthase [2]): 1 µM
Ki (Thymidylate synthase [3]): 0.9 µM
